# Experimental data reported in patent US20220125795A1, “THERAPEUTIC COMBINATIONS AND COMPOSITIONS FOR THE TREATMENT OF INFLAMMATORY BOWEL DISEASE” (RIJKSUNIVERSITEIT GRONINGEN, priority 2019, published 2022).
# Experiments:
# Assay type in all cases: in vivo, human
# [1] = Prospective clinical intervention study in CD patients: clinical disease activity (Harvey-Bradshaw Index); details: 100 mg riboflavin daily for 3 weeks, before vs after
# Protocol: (§1) In a prospective clinical intervention study, 70 CD patients were included and divided into two groups with (active) and without (quiescent) evidence of mucosal inflammation (defined by fecal calprotectin (FC) cut-off value: 200 μg/g). Patients received 100 mg riboflavin daily for 3 weeks. Clinical disease activity (Harvey-Bradshaw Index: HBI), inflammatory biomarkers (including interleukin 2) as well as fecal microbial composition (including pathogenic Enterobacteriaceae including E. coli) were analyzed before and after riboflavin intervention.
# [2] = test system: Enterobacteriaceae including E. coli; assay: Prospective clinical intervention study in CD patients: fecal microbial composition; details: CD patients with thiopurine treatment; 100 mg riboflavin daily for 3 weeks
# Protocol: as §1
# interleukin 2 = assay: Prospective clinical intervention study in CD patients: inflammatory biomarkers (interleukin 2); details: CD patients with thiopurine treatment; 100 mg riboflavin daily for 3 weeks
# Protocol: as §1
structure (smiles),measurement,setting,value
Cc1cc2nc3c(=O)[nH]c(=O)nc-3n(C[C@H](O)[C@H](O)[C@H](O)CO)c2cc1C [riboflavin],clinical disease activity (HBI),[1]; CD patients with mesalazine treatment,this was not the case (not as pronounced as)
same,clinical disease activity (HBI),[1]; CD patients with thiopurine treatment (particularly quiescent disease),further reduced clinical disease activity (HBI)
same,Enterobacteriaceae including E. coli (fecal),[2],further reduction
same,proinflammatory cytokine IL2,interleukin 2,further reduction
